Laboratory results from article PMC8522722, “Safety and Pharmacokinetics in Human Volunteers of Taniborbactam (VNRX-5133), a Novel Intravenous β-Lactamase Inhibitor” (Antimicrobial Agents and Chemotherapy, 2021).

How the values were obtained:
[1] = system: Pseudomonas aeruginosa isolates; set-up: method as in ref 13, 14 = [13]; 13 Vidales A , Hackel M , Wise M , Sahm D . 2020 . Antimicrobial activity of cefepime in combination with taniborbactam (formerly VNRX-5133) against clinical isolates of Enterobacterales collected fro || [14]; 14 Kalamatas J , Hackel M , Wise M , Sahm D . 2020 . Antimicrobial activity of cefepime in combination with taniborbactam (formerly VNRX-5133) against a 2018–2019 surveillance collection of Pseudomona; settings: cited from earlier work
[2] = system: cefepime-resistant β-lactamase-producing pathogens; set-up: method as in ref 15, 16 = [15]; 15 Georgiou P-C , Siopi M , Tsala M , Lagarde C , Kloezen W , Donnelly R , Meletiadis J , Mouton J . 2018 . VNRX-5133, a novel broad-spectrum beta-lactamase inhibitor, enhances the activity of cefepim || [16]; 16 Weiss W , Pulse M , Nguyen P , Valtierra D , Peterson K , Carter K , Pevear D , Burns C , Xerri L . 2018 . Efficacy of cefepime/VNRX-5133, a novel beta-lactamase inhibitor combination, against ceph; settings: cited from earlier work
[3] = Cardiodynamic ECG assessment and concentration-QT effect model (SAD part); assay type: in vivo, human
Description: ECG and pharmacokinetic data from the SAD part of the study were used to construct a concentration-QT effect model to assess potential QT effects. The primary cardiodynamic safety parameter was the corrected QT interval by Fredericia (QTcF). The potential impact of taniborbactam on other ECG intervals and T-wave morphology was also assessed. The ECG monitoring in the study was intensive, with continuous Holter 12-lead ECGs recorded on day 1. ECG data used in the modeling consisted of extracted replicates at time points that matched the pharmacokinetic data. The concentration-QT effect model included the entire single-dose range of between 62.5 mg and 1,500 mg taniborbactam.

[4] = set-up: species or system human; settings: in vivo
Description: Eligible subjects were randomized to receive either taniborbactam or placebo in a 3:1 ratio within dose cohorts in both the SAD and MAD parts of the study. Each dose cohort in the SAD part of the study enrolled 8 subjects, and each dose cohort in the MAD part of the study enrolled 12 subjects. In the SAD part, subjects received 62.5, 125, 250, 500, 1,000, or 1,500 mg taniborbactam as a 2-h intravenous (i.v.) infusion. In the MAD part, subjects received 2-h intravenous i.v. infusions of 250, 500, or 750 mg taniborbactam q8h over 10 days, ending after a final morning dose on day 10 (total of 28 doses).
Safety was assessed based on the occurrence of adverse events and evaluation of laboratory tests (chemistry, hematology, urinalysis), physical examination, vital signs, and 12-lead electrocardiograms (ECGs) that were performed throughout the study. Safety was followed through 7 days postdose in the SAD part and followed through 7 days post-last dose in the MAD part.

SMILES: NCCN[C@H]1CC[C@H](CC(=O)N[C@H]2Cc3cccc(C(=O)O)c3OB2O)CC1 [Taniborbactam]
- potentiation of cefepime activity as measured by the MIC90 [1]: 4 fold
- in vivo efficacy of cefepime [2]: restored the in vivo efficacy of cefepime
- QT effect (ΔΔQTcF) from exposure-response analysis ([3]; plasma concentrations up to 80,000 ng/ml (Cmax of 1,500 mg dose)): ≤ 10 ms
- effect on heart rate, T-wave morphology, PR and QRS interval ([3]; single doses 62.5 to 1,500 mg): did not have an effect
- subjects with adverse events considered by the investigator to be treatment related [4]: 4 subjects
